How the values were obtained:
PLK4 (h) = PLK4 (h) (Homo sapiens, UniProt O00444); assay: PLK-4 human kinase assay (SPA); format: biochemical; settings: for IC50: read-out: PLK4 pIC50 (converted)
Method in brief: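 Radiometric readout: 33P-labelled peptide captured on streptavidin SPA beads after EDTA stop, imaged by Leadseeker. Reaction ran 60 min at room temperature in Hepes pH 8.0 buffer. It contained 1 μM ATP with 2 nM [γ-33P]ATP, 10 μM biotinylated peptide and PLK4 (h) at 19 μg/ml.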

AuroraB (h) = AuroraB (h) (Homo sapiens, UniProt Q96GD4); assay: Aurora-B human kinase assay (SPA); format: biochemical; settings: for IC50: read-out: AuroraB pIC50 (converted)
Method in brief: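 Scintillation proximity assay: AuroraB (h) at 0.5 μg/ml with 3 μM biotinylated peptide, 0.5 μM ATP and 2.2 nM [γ-33P]ATP in 60 mM Hepes pH 7.5, 3 mM MgCl2, 3 mM MnCl2, 2 mM DTT. 60 min at room temperature, EDTA stop, streptavidin PVT beads read on Leadseeker.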

GSK3β (h) = GSK3β (h) (Homo sapiens, UniProt P49841); assay: GSK-3β human kinase assay (SPA); format: biochemical; settings: for IC50: read-out: GSK3B pIC50 (converted)
Method in brief: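 Radiometric SPA read-out: after EDTA stop, biotinylated 33P-labelled peptide bound streptavidin PVT beads and was imaged on Leadseeker. Reaction: 60 min, room temperature, GSK3β (h) at 1 μg/ml, 1 μM substrate peptide, 1 μM ATP with 2 nM [γ-33P]ATP, Tris pH 7.4/MgCl2/DTT buffer.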

CDK1/CyclinB (h) = CDK1/CyclinB (h) (Homo sapiens, UniProt P06493); assay: CDK1/CyclinB human kinase assay (FRET); format: biochemical; settings: for IC50: read-out: CDK1 pIC50 (converted)
Method in brief: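 Z'-LYTE FRET format: 0.2 μg/ml enzyme with 2 μM Ser/Thr peptide 12 and 10 μM ATP in 50 mM Hepes pH 7.5, 10 mM MgCl2, 1 mM EGTA, 0.01% Brij-35, 60 min at room temperature. Protease development 60 min; coumarin/fluorescein emission ratio (460/538 nm, excitation 390 nm) reports phosphorylation.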

A2780 = assay: Cellular proliferation assay (Alamar blue), A2780; format: cell-based; settings: A2780 cells, 72 hours with compound, 10% FCS; for IC50: Homo sapiens, A2780, 72 h, read-out: pIC50 A2780 (converted)
Method in brief: (§1)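 Proliferation was assessed over 72 h of compound treatment, following 24 h of seeding without compound, under 10% FCS, 37° C. and 5% CO2. Fluorescent resazurin product was measured and compared with control cells.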

HCT-116 = assay: Cellular proliferation assay (Alamar blue), HCT-116; format: cell-based; settings: HCT-116 cells, 72 hours with compound, 10% FCS; for IC50: Homo sapiens, HCT-116, 72 h, read-out: pIC50 HCT-116 (converted)
Method in brief: as §1

H1299 = assay: Cellular proliferation assay (Alamar blue), H1299; format: cell-based; settings: H1299 cells, 72 hours with compound, 10% FCS; for IC50: Homo sapiens, NCI-H1299, 72 h, read-out: pIC50 H1299 (converted)
Method in brief: as §1

MDA/MB231 = assay: Cellular proliferation assay (Alamar blue), MDA/MB231; format: cell-based; settings: MDA/MB231 cells, 72 hours with compound, 10% FCS; for IC50: Homo sapiens, MDA-MB-231, 72 h, read-out: pIC50 MDA/MB231 (converted)
Method in brief: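 Viable cell number was assessed by resazurin-based Alamar blue fluorescence (544 nm/590 nm) after 72 h compound exposure in 10% FCS at 37° C, which followed a 24 h compound-free seeding period. Dye incubation was 24 h for MDA-MB-231 and 4 h for H460; results expressed versus control cells.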

U87MG = assay: Cellular proliferation assay (Alamar blue), U87MG; format: cell-based; settings: U87MG cells, 72 hours with compound, 10% FCS; for IC50: Homo sapiens, U-87 MG, 72 h, read-out: pIC50 U87MG (converted)
Method in brief: as §1

PC-3 = assay: Cellular proliferation assay (Alamar blue), PC-3; format: cell-based; settings: PC-3 cells, 72 hours with compound, 10% FCS; for IC50: Homo sapiens, PC-3, 72 h, read-out: pIC50 PC-3 (converted)
Method in brief: as §1

Chain of AuroraB (h) (Q96GD4 whole entry): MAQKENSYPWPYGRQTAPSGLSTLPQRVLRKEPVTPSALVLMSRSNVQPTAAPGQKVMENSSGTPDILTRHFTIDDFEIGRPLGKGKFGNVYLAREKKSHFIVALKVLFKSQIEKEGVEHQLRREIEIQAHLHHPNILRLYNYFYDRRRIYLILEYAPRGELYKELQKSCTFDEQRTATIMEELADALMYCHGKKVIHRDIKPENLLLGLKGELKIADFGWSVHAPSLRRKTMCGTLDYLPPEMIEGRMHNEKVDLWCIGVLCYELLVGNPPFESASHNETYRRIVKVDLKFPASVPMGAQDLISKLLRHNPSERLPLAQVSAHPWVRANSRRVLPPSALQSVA
Chain of GSK3β (h) (P49841 whole entry): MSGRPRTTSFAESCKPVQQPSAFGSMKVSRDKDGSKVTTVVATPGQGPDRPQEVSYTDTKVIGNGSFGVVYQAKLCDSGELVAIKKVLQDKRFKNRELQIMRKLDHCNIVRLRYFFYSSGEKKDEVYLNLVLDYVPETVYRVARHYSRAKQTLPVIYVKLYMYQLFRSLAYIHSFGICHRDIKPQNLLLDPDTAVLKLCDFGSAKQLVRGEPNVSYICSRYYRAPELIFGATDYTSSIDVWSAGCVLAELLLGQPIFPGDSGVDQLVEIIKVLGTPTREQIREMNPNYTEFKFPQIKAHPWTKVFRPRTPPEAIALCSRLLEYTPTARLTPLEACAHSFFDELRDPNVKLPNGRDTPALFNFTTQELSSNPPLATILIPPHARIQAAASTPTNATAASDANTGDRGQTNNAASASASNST
Chain of CDK1/CyclinB (h) (P06493 whole entry): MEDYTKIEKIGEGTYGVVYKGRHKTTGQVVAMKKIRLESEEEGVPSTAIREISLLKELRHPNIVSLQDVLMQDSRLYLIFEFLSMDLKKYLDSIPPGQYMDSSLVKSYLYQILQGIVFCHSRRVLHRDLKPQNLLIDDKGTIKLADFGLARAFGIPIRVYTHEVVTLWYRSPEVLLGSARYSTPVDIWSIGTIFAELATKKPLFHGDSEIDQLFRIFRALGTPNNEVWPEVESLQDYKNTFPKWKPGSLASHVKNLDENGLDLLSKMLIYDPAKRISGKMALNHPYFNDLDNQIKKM
Chain of CDK1/CyclinB (h) (P14635 whole entry partner): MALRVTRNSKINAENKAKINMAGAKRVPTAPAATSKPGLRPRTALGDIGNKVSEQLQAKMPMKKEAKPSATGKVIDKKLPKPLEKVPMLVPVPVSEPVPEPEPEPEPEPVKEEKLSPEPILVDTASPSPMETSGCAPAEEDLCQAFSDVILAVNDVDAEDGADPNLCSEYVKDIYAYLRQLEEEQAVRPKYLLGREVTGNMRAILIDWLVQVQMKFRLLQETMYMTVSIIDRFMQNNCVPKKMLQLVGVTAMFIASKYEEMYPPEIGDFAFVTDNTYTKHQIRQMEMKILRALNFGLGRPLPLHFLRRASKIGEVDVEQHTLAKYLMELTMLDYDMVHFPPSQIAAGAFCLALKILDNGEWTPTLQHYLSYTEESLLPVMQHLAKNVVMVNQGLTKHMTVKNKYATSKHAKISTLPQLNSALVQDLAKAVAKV
Chain of PLK4 (h) (O00444 whole entry): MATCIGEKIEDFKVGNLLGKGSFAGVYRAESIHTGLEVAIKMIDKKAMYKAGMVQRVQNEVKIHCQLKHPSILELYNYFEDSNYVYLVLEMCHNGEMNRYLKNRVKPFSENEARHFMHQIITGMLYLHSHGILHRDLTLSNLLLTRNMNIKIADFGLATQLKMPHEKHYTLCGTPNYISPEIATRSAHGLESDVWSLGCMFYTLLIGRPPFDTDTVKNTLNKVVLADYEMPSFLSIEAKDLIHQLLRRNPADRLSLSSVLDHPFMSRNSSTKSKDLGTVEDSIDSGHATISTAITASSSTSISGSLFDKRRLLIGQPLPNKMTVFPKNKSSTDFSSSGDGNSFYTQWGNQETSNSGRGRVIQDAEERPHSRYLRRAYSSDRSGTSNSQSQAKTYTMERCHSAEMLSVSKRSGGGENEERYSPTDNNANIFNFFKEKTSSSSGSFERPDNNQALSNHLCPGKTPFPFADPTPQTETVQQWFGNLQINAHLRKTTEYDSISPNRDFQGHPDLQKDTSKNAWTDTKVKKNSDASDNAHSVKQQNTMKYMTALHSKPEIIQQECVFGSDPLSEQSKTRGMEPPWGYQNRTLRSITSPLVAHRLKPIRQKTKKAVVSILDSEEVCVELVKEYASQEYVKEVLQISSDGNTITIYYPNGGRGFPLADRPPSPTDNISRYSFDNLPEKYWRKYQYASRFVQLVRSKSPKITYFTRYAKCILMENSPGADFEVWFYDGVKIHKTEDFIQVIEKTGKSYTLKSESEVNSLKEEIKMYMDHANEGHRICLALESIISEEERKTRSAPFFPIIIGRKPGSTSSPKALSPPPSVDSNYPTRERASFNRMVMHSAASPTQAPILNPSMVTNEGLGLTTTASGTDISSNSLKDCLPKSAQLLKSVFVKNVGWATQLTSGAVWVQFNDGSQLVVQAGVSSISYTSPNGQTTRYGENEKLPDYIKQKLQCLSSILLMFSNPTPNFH

Row | Structure (SMILES) | IC50 (PLK4 (h)) [µM] | IC50 (AuroraB (h)) [µM] | IC50 (GSK3β (h)) [µM] | IC50 (CDK1/CyclinB (h)) [µM] | IC50 (A2780) [µM] | IC50 (HCT-116) [µM] | IC50 (H1299) [µM] | IC50 (MDA/MB231) [µM] | IC50 (U87MG) [µM] | IC50 (PC-3) [µM] | PLK4 pIC50 (PLK4 (h)) | AuroraB pIC50 (AuroraB (h)) | GSK3B pIC50 (GSK3β (h)) | CDK1 pIC50 (CDK1/CyclinB (h)) | pIC50 A2780 (A2780) | pIC50 HCT-116 (HCT-116) | pIC50 H1299 (H1299) | pIC50 MDA/MB231 (MDA/MB231) | pIC50 U87MG (U87MG) | pIC50 PC-3 (PC-3)
1 | CN1CCNc2ncnc3c2/C(=C/Nc2cccc(c2)CN(C)CC(=O)N(C)CC1)C(=O)N3 [Compound 149] | 5.01 | > 10 | 0.302 | > 10 | > 10 | > 10 | > 10 | > 10 | > 10 | > 10 |  |  |  |  |  |  |  |  |  | 
2 | COc1cc2cc(c1OC)OCC(=O)N(C)CCCCNc1ncnc3c1C(=CN2)C(=O)N3 (mixture of isomers) [Compound 150] |  |  |  |  |  |  |  |  |  |  | <5 | 5.23 | <5 | <5 | <5 | <5 | <5 | <5 | <5 | <5
3 | CN1CCCN(C)c2ncnc3c2/C(=C/Nc2cccc(c2)OCCCCCCC1=O)C(=O)N3 [Compound 53] | 2.34 | > 10 | 0.794 | > 10 | > 10 | > 10 | > 10 | > 10 | > 10 | > 10 |  |  |  |  |  |  |  |  |  | 
4 | CN1CCCNc2ncnc3c2C(=CNc2cccc(c2)OCCCC1=O)C(=O)N3 (mixture of isomers) [Compound 35] |  |  |  |  |  |  |  |  |  |  | 7.01 | 6.88 | 7.4 | 6.56 | 5.17 | 5.85 | 5.62 | <5 | 5.50 | 5.31
5 | CN1CCNc2ncnc3c2/C(=C/Nc2cccc(c2)OCC(=O)N(C)CC1)C(=O)N3 [Compound 148] | 1.82 | 4.47 | 1 | > 10 | > 10 | > 10 | > 10 | > 10 | > 10 | > 10 |  |  |  |  |  |  |  |  |  | 
6 | COc1cc2cc(c1OC)CN(C)CC(=O)N(C)CCCNc1ncnc3c1/C(=C/N2)C(=O)N3 [Compound 125] | > 10 | > 10 | 9.77 | > 10 | > 10 | > 10 | > 10 | > 10 | > 10 | > 10 |  |  |  |  |  |  |  |  |  | 
7 | CN1CCCNc2ncnc3c2C(=CNc2ccc(N4CCOCC4)c(c2)OCCCC1=O)C(=O)N3 (mixture of isomers) [Compound 124] |  |  |  |  |  |  |  |  |  |  | 7.34 | 6.13 | 7.33 | 7.53 | 5.94 | 6.21 | 6.89 | 5.37 | 6.16 | 6.02
8 | COc1cc2cc(c1OC)OCCCCC(=O)N(C)CCCNc1ncnc3c1C(=CN2)C(=O)N3 (mixture of isomers) [Compound 134] |  |  |  |  |  |  |  |  |  |  | 6.6 | 6.59 | 5.35 | 5.68 | 5.07 | 5.79 | 5.76 | 5.03 | <5 | 5.44
9 | CN1CCCNc2ncnc3c2/C(=C/Nc2cc(cc(C(F)(F)F)c2)OCCCCC1=O)C(=O)N3 [Compound 130] | 4.9 | 0.309 | > 10 | > 10 | > 10 | 4.9 | 8.91 | > 10 | 6.31 | 8.13 |  |  |  |  |  |  |  |  |  | 
10 | COc1cc2cc(c1OC)OCCCC(=O)N(C)CCCNc1ncnc3c1/C(=C/N2)C(=O)N3 [Compound 112] | 0.105 | 0.191 | 0.115 | 0.0479 | > 10 | 0.55 | 0.562 | > 10 | 5.25 | > 10 |  |  |  |  |  |  |  |  |  | 
11 | COc1cc2cc(c1OC)CN(C)CC(=O)N(C)CCN(C)CCNc1ncnc3c1/C(=C/N2)C(=O)N3 [Compound 155] | 8.71 | > 10 | 6.03 | > 10 | > 10 | > 10 | > 10 | > 10 | > 10 | > 10 |  |  |  |  |  |  |  |  |  | 
12 | CN1CCNc2ncnc3c2/C(=C/Nc2cccc(c2)OCCCCCC1=O)C(=O)N3 [Compound 39] | 3.72 | 1.26 | 0.282 | 5.62 | > 10 | 3.8 | > 10 | > 10 | 7.94 | > 10 |  |  |  |  |  |  |  |  |  | 
13 | COc1ccc2cc1CN(C)CC(=O)N(C)CCCCNc1ncnc3c1/C(=C/N2)C(=O)N3 [Compound 153] | 2.57 | > 10 | 1.62 | > 10 | > 10 | > 10 | > 10 | > 10 | > 10 | > 10 |  |  |  |  |  |  |  |  |  | 
14 | CN1CCN(c2ccc3cc2OCCCCC(=O)N(C)CCNc2ncnc4c2C(=CN3)C(=O)N4)CC1 (mixture of isomers) [Compound 135] |  |  |  |  |  |  |  |  |  |  | 6.67 | <5 | 6.2 | <5 | <5 | 5.21 | 5.31 | <5 | <5 | <5
15 | COc1ccc2cc1CN(C)CCCCC(=O)NCCN(C)c1ncnc3c1/C(=C/N2)C(=O)N3 [Compound 51] | > 10 | > 10 | > 10 | > 10 | > 10 | > 10 | > 10 | > 10 | > 10 | > 10 |  |  |  |  |  |  |  |  |  | 
16 | COc1ccc2cc1OCCCCCC(=O)N(C)CCNc1ncnc3c1/C(=C/N2)C(=O)N3 [Compound 37] | 0.55 | 0.214 | 0.0851 | 2.14 | 7.59 | 6.03 | 3.16 | > 10 | 1.82 | 9.55 |  |  |  |  |  |  |  |  |  | 
17 | COc1cc2cc(c1OC)CN(C)CC(=O)N(C)CCCCNc1ncnc3c1/C(=C/N2)C(=O)N3 [Compound 152] | 5.01 | > 10 | > 10 | > 10 | > 10 | > 10 | > 10 | > 10 | > 10 | > 10 |  |  |  |  |  |  |  |  |  | 
18 | CN1CCNC(=O)CCCCCOc2cc(ccc2Cl)N/C=C2\C(=O)Nc3ncnc1c32 [Compound 52] | 9.55 | 6.61 | 4.47 | > 10 | > 10 | 1.95 | > 10 | > 10 | 7.24 | > 10 |  |  |  |  |  |  |  |  |  | 
19 | CN1CCN(c2ccc3cc2OCCCC(=O)N(C)CCNc2ncnc4c2C(=CN3)C(=O)N4)CC1 (mixture of isomers) [Compound 137] |  |  |  |  |  |  |  |  |  |  | 7.3 | ~5 | 6.405 | 5.83 | 5.61 | 6.04 | 5.73 | 5.31 | 5.94 | <5

Reference: patent US8338422B2, “Indolin-2-ones and aza-indolin-2-ones” (Janssen Pharmaceutica NV, priority 2007, dated 2012)
